Where “and” joins values, the source holds several entries; their conditions need not be identical. Equal values may be shown once. Read-outs that look alike come from different tables or passages of the source.
How the values were obtained:
[1] = Metabolism in human hepatic S9
Description: (§1) A typical incubation contained rat, mouse, dog or human liver microsomes (0.4-0.5 mg of protein), 100 mM potassium phosphate buffer (pH7.4), 50 μM test compound, an NADPH-generating system consisting of 0.5 mM NADP^+, 0.5 mM glucose-6-phosphate, 1 IU/mL glucose-6-phosphate dehydrogenase, 1 mg/mL diethylenetriaminepentaaceticacid (DETAPAC), and 3 mM MgCl2 in a final incubation volume of 0.25 mL. […] After centrifugation at 3000 rpm for 5 min, the organic fraction was collected, the solvent was removed with a stream of argon and the residue was reconstituted in 125 μL of MeOH and 125 μL H2O, mixed thoroughly, centrifuged at 13,000 rpm for 5 min and analyzed by high performance liquid chromatography. Samples were run on a Hitachi D-7000 HPLC system using a L-7100 analytical pump, L-7400 UV-Visible variable wavelength detector, and L-7600 automatic sample injector. […] Disappearance of the analyte was monitored over time. A plot of the area under the curve for the normalized analyte versus time afforded the half-life values and kapp.
(§2) Microsomes contain CYPs and FMO metabolic enzymes. S9 contains soluble enzymes (i.e., aldehyde oxidase, MAO, etc.).

[2] = Solubility (water; 10:30:60% DMSO:PEG400:water vehicle); type: physicochemical
[3] = biological target: Na+ channel currents in LQT3 patient-derived cardiomyocytes (Homo sapiens, UniProt Q14524); test: Whole cell patch clamp of Na+ currents (INaP, INaL) in hIPSC LQT3 patient-derived cardiomyocytes; type: cell-based
Description: Patch clamp recordings from hIPSC LQT3 patient-derived cardiomyocytes for Na+ channel currents were recorded in response to computed voltage waveforms that simulated adult ventricular action potentials.
The basis for LQT3 is a mutation in SCN5a that encodes the voltage-gated Na channel responsible for cardiac action potential. The Na current (INa) has peak and late components: the peak component initiates the action potential but as voltage rises, the channel normally inactivates. […] The LQT3 mutation impairs inactivation. The late component is then enlarged, resulting in action potential prolongation. […] Whole cell patch clamp electrophysiology experiments in LQTS3 cardiomyocytes helped determine the functional activity of drug candidates for inhibition of the late sodium current in the cells. Thus, we tested compounds for Peak (INaP) and Late (INaL) components. They were recorded in a “whole-cell” voltage-clamp mode configuration in response to voltage stimulation steps from −80 mV to +40 mV and their IC50 values determined (Table 1).

[4] = system: cardiomyocytes derived from hiPSCs from a LQTS3 patient; test: cells; settings: Homo sapiens, Cardiomyocyte; for EC50: read-out: LQT-EC50 (μM)-Shortening; for IC50: read-out: LQT-IC50 (uM)-Shortening
Male BALBc mice = settings: mouse, in vivo, ip, 200 mg/kg
Source text: Male BALBc mice (20-22 g) were used throughout these studies. The animals were maintained in a temperature-controlled room with 12-hr periods of light and darkness and had continuous access to water and animal food. […] Groups contained 2-4 animals.

[5] = Chemical stability in PBS buffer at pH 7.4 or 3.0, 37° C.; type: physicochemical; settings: pH 7.4, 100 μM in PBS, 1% Ethanol, read-out: Half-Life @ pH 7.4 and 37° C.
Description: A typical incubation contained 100 μM of the test compound prepared in PBS buffer (pH 7.4 or 3.0, 50 mM) with 1% Ethanol. The test compounds were incubated at 37° C. An aliquot from incubations was taken at various times and injected onto an RP-HPLC system as described above. Disappearance of the analyte was monitored over time.

[6] = system: normal human induced pluripotent stem cell (hiPSC) cardiomyocyte; settings: for WT-Prolong. Dose: 'No AP' wraps to 'No AP Prolong.'; for WT-Fold Prolongation: APD; for WT-Fold Prolongation / Cessation of Beating / WT-Prolongation Dose: normal hiPSC cardiomyocytes; for WT-Cess. Dose / WT-EC50 (μM)-Prolong.: deuterated vs non-deuterated; for WT-EC50 (μM)-Prolong.: 'No AP' wraps to 'No AP prolongation'
[7] = biological target: hERG potassium channel (IKr) (Homo sapiens, UniProt Q12809); test: Automated patch clamp, hERG (IKr) expressed in CHO cells; settings: for IC50: hERG (IKr) IC50, CHO cells
[8] = biological target: Nav1.5 sodium channel, peak current (INaP) (Homo sapiens, UniProt Q14524, form not given); test: Patch clamp electrophysiology, peak (INaP) and late (INaL) sodium current in transfected cells
Description: (§3) This provided data to investigate the physiology and action of target compounds on individual ion channels. The assay used standardized protocols for culturing and conducting conventional whole cell recording that have been previously developed for both current and voltage-clamp to characterize action potentials using transfected cells. Briefly, the Nav1.5 sodium channel was transfected into HEK293 cells. […] Briefly, cells were plated on 0.1% gelatin-coated 35-mm plastic Petri dishes. […] Data was reported as IC50 values±STD (Table 1).

[9] = biological target: Nav1.5 sodium channel transfected into HEK293 cells (Homo sapiens, UniProt Q14524); test: as above
Description: as §3

[10] = system: cardiomyocytes derived from hiPSCs from a LQTS3 patient; settings: for LQT-Cess. Dose: deuterated vs non-deuterated
CYP2D6 = CYP2D6 (Homo sapiens, UniProt P10635); test: Metabolism with highly purified CYP2D6 (HPLC); settings: 50 min incubation
Description: as §1
Accordingly, we examined the metabolism of leads with highly purified CYPs with an HPLC method (Example 8).

[11] = Metabolic stability in human liver microsomes; type: in vitro ADME; settings: for half-life at 50 μM: human, liver microsomes, pH 7.4, liver microsomes + NADPH, species (human), read-out: metabolic stability in liver microsomes T1/2
Description: as §1

[12] = Metabolism in mouse hepatic S9; settings: 0.4 mg protein/incubation; 30 mins, 37° C.
Description: as §1, §2

Human FMO1 = biological target: T1, Human FMO1 (Homo sapiens, UniProt Q01740); test: Metabolism with human FMO1 (nmol metabolism/incubation); settings: 15 μg enzyme/incubation; 30 mins, 37° C.
T1 sequence (Q01740 1-532): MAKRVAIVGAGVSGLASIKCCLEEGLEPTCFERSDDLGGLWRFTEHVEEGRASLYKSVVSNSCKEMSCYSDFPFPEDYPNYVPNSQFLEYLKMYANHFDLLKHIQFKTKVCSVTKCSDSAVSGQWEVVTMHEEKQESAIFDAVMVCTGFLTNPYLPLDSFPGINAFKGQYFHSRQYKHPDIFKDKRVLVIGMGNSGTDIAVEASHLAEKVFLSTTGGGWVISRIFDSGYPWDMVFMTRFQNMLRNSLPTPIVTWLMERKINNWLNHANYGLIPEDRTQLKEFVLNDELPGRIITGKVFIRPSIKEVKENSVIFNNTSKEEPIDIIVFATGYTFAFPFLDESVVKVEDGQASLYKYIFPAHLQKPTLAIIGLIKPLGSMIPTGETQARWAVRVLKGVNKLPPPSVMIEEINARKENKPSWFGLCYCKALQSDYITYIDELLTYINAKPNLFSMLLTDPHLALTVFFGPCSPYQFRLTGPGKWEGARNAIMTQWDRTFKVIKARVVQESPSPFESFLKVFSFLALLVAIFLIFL

CYP3A4 = CYP3A4 (Homo sapiens, UniProt P08684); test: Metabolism with highly purified CYP3A4 (HPLC); settings: 3 pmol enzyme/incubation; 30 mins, 37° C.
[13] = whole-cell voltage clamp, steps -80 mV to +40 mV, table title says transfected CHO cells, read-out: IC50 for INaL
[14] = whole-cell voltage clamp, steps -80 mV to +40 mV, table title says transfected CHO cells, read-out: IC50 for INaP
[15] = 'No AP' wraps to 'No AP shortening'

Chain of CYP2D6 (P10635 whole entry): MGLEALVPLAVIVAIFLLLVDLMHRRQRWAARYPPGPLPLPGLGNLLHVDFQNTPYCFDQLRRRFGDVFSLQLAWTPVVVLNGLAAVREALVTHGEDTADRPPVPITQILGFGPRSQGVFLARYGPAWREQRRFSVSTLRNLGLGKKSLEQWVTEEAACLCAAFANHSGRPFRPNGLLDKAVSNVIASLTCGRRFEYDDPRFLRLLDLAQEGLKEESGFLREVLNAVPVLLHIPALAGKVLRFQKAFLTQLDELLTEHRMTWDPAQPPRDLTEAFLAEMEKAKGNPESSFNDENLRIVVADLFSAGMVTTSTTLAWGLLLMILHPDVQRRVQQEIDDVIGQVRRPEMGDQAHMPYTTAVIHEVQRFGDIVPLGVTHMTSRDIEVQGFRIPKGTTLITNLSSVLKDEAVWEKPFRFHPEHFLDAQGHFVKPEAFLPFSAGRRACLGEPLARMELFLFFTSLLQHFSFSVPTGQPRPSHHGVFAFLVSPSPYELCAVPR
Chain of hERG potassium channel (IKr) (Q12809 whole entry): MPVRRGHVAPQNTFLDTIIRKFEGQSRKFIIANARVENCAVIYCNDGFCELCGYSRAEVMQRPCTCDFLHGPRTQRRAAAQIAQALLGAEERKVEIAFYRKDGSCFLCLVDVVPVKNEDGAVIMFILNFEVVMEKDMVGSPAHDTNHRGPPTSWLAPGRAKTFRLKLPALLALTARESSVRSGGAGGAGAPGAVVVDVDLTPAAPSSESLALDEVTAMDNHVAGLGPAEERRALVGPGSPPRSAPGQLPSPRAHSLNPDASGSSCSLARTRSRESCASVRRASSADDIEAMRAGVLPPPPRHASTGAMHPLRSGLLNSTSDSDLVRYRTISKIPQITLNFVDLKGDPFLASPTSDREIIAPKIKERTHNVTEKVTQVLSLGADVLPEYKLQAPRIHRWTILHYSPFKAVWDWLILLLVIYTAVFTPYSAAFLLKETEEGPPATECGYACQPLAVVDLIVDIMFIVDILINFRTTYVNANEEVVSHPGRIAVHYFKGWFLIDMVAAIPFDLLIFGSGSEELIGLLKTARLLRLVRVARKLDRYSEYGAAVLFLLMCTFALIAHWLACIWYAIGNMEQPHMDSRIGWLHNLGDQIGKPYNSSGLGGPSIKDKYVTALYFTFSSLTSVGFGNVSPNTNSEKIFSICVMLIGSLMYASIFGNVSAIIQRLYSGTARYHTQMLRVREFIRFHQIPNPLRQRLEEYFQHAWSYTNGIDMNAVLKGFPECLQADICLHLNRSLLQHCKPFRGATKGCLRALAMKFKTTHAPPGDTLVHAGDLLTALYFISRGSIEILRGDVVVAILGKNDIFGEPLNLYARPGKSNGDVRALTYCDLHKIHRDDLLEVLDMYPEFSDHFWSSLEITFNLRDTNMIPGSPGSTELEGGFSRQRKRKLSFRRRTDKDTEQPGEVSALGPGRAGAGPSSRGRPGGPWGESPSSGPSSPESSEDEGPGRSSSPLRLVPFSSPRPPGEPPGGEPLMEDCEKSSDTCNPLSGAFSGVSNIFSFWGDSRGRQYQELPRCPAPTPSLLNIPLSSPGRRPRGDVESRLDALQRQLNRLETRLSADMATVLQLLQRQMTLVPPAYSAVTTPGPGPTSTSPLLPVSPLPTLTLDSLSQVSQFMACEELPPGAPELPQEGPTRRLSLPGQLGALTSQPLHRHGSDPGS
Chain of CYP3A4 (P08684 whole entry): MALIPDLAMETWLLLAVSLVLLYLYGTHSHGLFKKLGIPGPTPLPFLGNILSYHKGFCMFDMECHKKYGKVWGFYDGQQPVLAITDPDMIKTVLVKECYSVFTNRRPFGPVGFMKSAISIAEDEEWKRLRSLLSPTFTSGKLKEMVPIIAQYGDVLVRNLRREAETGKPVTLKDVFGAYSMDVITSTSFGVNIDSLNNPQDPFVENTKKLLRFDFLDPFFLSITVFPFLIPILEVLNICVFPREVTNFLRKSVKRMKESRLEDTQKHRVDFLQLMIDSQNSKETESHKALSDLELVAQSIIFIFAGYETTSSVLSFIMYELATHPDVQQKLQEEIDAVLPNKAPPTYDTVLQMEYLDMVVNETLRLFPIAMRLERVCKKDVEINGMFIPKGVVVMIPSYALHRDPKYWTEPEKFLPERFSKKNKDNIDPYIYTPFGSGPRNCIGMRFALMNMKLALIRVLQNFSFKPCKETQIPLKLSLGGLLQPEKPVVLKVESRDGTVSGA

Structure (SMILES) | metabolism in human liver S-9 judged by HPLC [1] | solubility (in words) [2] | IC50 [3, 13] | IC50 [3, 14] | EC50 [4] | IC50 [4] | behavioral/toxic effects at 200 mg/kg (Male BALBc mice) | half-life at 100 μM [5] | WT-Prolong. Dose [6] | WT-Fold Prolongation [6] | WT-Cess. Dose [6] | WT-EC50 (μM)-Prolong. [6] | Cessation of Beating [6] | IC50 ([7]; Example 2) | DKr/NaL ([7]; ratio, Example 2) | DNaP/Kr ([7]; ratio, Example 2) | IC50 ([8]; Peak Na+ (INaP) IC50) | LQT-Cessation Dose ([10]; LQT3 cardiomyocytes) | LQT-Fold Shortening ([10]; LQT3 cardiomyocytes) | half-life at 50 μM [11] | also measured
Cc1cc(C)cc(OCC(N)c2ccccc2)c1.Cl (racemic) [Compound 70, (rac)-(+)-2-(3,5-dimethylphenoxy)-1-phenylethanamine hydrochloride] | detectably metabolized | good solubility | 0.54 µM | 171 µM | < 0.8 µM | 0.0013 µM | slight lethargy | > 30 days | No AP | None | 66 µM | No AP | 66 µM | 6 µM and 6.2 µM | 34.0 | 3.0 | 20.1 µM | 66 µM | 1.279 | > 0.0417 days | Ratio Mex INaL/Lead INaL ([3]; potency relative to Mexiletine): 94.4; WT-Prolongation Dose [6]: None; IC50 [7]: 6.2 µM; DKr/NaL ([7]; ratio hERG IC50/late Na IC50): 34.0; DNaP/Kr ([7]; ratio peak Na IC50/hERG IC50): 3.0; IC50 [8]: 18.9 µM; DNap/NaL ([9]; ratio peak IC50/late IC50): 103; DNap/NaL ([9]; ratio peak/late IC50, Example 2, hydrochloride): 104 and 100.5; LQT-Fold Shortening [10, 15]: 1.279; LQT-Shortening Dose [10, 15]: 7.4 µM; LQT-Cess. Dose [10]: 66 µM; nmols metabolized, CYP2D6 (CYP2D6): 4.6 nmols; nmols/μg CYP, CYP2D6 (CYP2D6): .345 nmols/μg CYP; pmols product/μg CYP/min, CYP2D6 (CYP2D6): 6.92 pmols product/μg CYP/min; metabolism in human liver microsomes judged by HPLC [11]: metabolized
Cl.[2H]C(N)(COc1c(C)cccc1C)c1ccccc1 (centres unmarked) [Compound 136] | – | – | – | – | – | – | – | – | – | – | – | – | – | – | – | – | – | – | – | – | Human S-9, nmol metab./incub. ([1]; 0.4 mg protein/incubation, 30 mins, 37° C.): 1.4 nmol metab./incub.; Mouse S-9, nmol metab./incub. [12]: 1.4 nmol metab./incub.; Human FMO1, nmol metab./incub. (Human FMO1): 0.06 nmol metab./incub.; Human CYP3A4, nmol metab./incub. (CYP3A4): 1.5 nmol metab./incub.
Cc1ccccc1OCC(N)c1ccccc1 (centres unmarked) [Compound 25, 1-phenyl-2-(o-tolyloxy)ethanamine] | detectably metabolized | good solubility | 1.7 µM | 102 µM | – | – | – | > 30 days | – | – | – | – | – | – | – | – | – | – | – | > 0.0417 days | IC50 ([3]; LQT3 patient-derived cardiomyocytes, read-out: NaI channel Late (INaL) IC50): 1.74 µM
COCCNC(COc1cccc(C)c1C)c1ccccc1 (racemic) [Compound 36, 2-(2,3-dimethylphenoxy)-N-methoxy-ethyl-1-phenylethanamine] | detectably metabolized | good solubility | 0.38 µM | 51.8 µM | – | 5.73 µM | slight lethargy | – | – | – | – | – | None | 27.6 µM | 36.9 | 0.93 | 25.8 µM | 200 µM | 1.508 | – | IC50 [7]: 27.6 µM; DKr/NaL ([7]; ratio hERG IC50/late Na IC50): 36.9; DNaP/Kr ([7]; ratio peak Na IC50/hERG IC50): 0.9; IC50 [9]: 0.747 µM; metabolism in human liver microsomes judged by HPLC [11]: metabolized
Cl.NC(COc1cc(C(F)(F)F)cc(C(F)(F)F)c1)c1ccccc1 (centres unmarked) [Compound 78, 2-(3,5-bis(trifluoromethyl)phenoxy)-1-phenylethan-1-amine] | – | good solubility | – | – | 23.1 µM | 23.1 µM | – | > 30 days | No AP | None | 133 µM | No AP | 133 µM | 7.2 µM | 7.0 | 2.77 | 20 µM | 66 µM | 1.208 | > 0.0417 days | WT-Prolongation Dose [6]: None; DNap/NaL ([9]; ratio peak IC50/late IC50): 19.4; DNap/NaL ([9]; ratio peak/late IC50, Example 2): 19.4; LQT-Fold Shortening [10, 15]: 1.208; LQT-Shortening Dose [10, 15]: 22 µM; LQT-Cess. Dose [10]: 66 µM

Source: patent US11492325B2, “Compounds as inhibitors of sodium channels” (Human BioMolecular Research Institute, priority 2016, dated 2022)
